Experimental data: EP1001761B1, “USE OF CHOL[…] TREATING ATTENTION DEFICIT DISORDERS” (priority 1997, dated 1999)
Structures can show the parent of a compound that is named as a salt.

Tests used:
patients with ADD = assay: treatment of two ADD patients, measured by ANT (Amsterdam Neuropsychological Tests), reaction times for different tasks; type: in vivo; conditions: for After: mean / After: miss (Missed task) / After: Fa (Failed attempt): after treatment
From the text: The protocol in this case is first a baseline testing before medication and retesting after 2 days on medication and then after a week repeated testing. Ecological scales were also used before and are now being evaluated after one week after two weeks etc. for a treatment of one month duration.

solubility in water = type: physicochemical; conditions: room temperature
Method: Galantamine and its acid addition salts form crystals. […] If necessary, pharmaceutically-acceptable suspension aids may be employed. Typically, such a suspension will be employed at a concentration of 0.1-50 mg/ml, such as 1-50 mg/ml, more commonly 5-40 mg/ml, for example, 5-30 mg/ml or 10-40 mg/ml, such as 10-30 mg/ml, especially 20-30 mg/ml of galantamine.

Row | Compound | improvement in attention (reduction in time to complete certain tasks and with fewer errors), normalized data, error analysis (patients with ADD; two patients, 2.5 mg 3 times a day) | After: mean (patients with ADD; Patient A, task Baseline) | After: mean (patients with ADD; Patient A, task Focused Att.) | After: miss (Missed task) (patients with ADD; Patient A, task Focused Att.) | After: Fa (Failed attempt) (patients with ADD; Patient A, task GoNoGo) | After: mean (patients with ADD; Patient A, task GoNoGo) | After: miss (Missed task) (patients with ADD; Patient A, task GoNoGo) | After: Fa (Failed attempt) (patients with ADD; Patient A, task Sustained Att.) | After: mean (patients with ADD; Patient A, task Sustained Att.) | After: miss (Missed task) (patients with ADD; Patient A, task Sustained Att.) | After: mean (patients with ADD; Patient B, task Baseline) | After: mean (patients with ADD; Patient B, task Focused Att.) | After: miss (Missed task) (patients with ADD; Patient B, task Focused Att.) | After: Fa (Failed attempt) (patients with ADD; Patient B, task GoNoGo) | After: mean (patients with ADD; Patient B, task GoNoGo) | After: miss (Missed task) (patients with ADD; Patient B, task GoNoGo) | After: Fa (Failed attempt) (patients with ADD; Patient B, task Sustained Att.) | After: mean (patients with ADD; Patient B, task Sustained Att.) | After: miss (Missed task) (patients with ADD; Patient B, task Sustained Att.) | solubility in water (solubility in water)
1 | COc1ccc2c3c1O[C@H]1C[C@@H](O)C=C[C@@]31CCN(C)C2 [galantamine hydrobromide] | over 2.5 standard deviations |  |  |  |  |  |  |  |  |  |  |  |  |  |  |  |  |  |  | 
2 | COc1ccc2c3c1O[C@H]1C[C@@H](O)C=C[C@@]31CCN(C)C2 [galantamine] |  | 727 ms | 1352 ms | 0 | 2 | 655 ms | 1 | 6 | 1222 ms | 4 | 780 ms | 1166 ms | 3 | 3 | 766 ms | 3 | 50 | 1152 ms | 20 | only sparingly soluble
